According to patent publication US8362023B2, “Pyrazolo pyrimidines” (Hoffmann-La Roche Inc., priority 2011, dated 2013):
Structures can show the parent of a compound that is named as a salt.

Tests used:
[1] = target: T1, Human DYRK1B (Homo sapiens, UniProt Q9Y463); experiment: DYRK1B Kinase TR-FRET (IMAP-Tb) Assay; assay type: biochemical; details: TR-FRET (IMAP-Tb); ATP 70 μM; 37° C. for 60 minutes; averages of multiple runs; read-out: Enzyme IC50 (μM) DYRK1B
T1 construct: purchased Invitrogen PR8350B (former PV4649)
Text: DYRK1B Kinase TR-FRET (IMAP-Tb) Assay Assay Principle The kinase TR-FRET (IMAP-Tb) assay uses a fluorescence labeled substrate peptide in the kinase reaction. Upon phosphorylation by the kinase, phosphopeptide is produced, which will be detected by the binding solution provided in IMAP TR-FRET binding kit. After the completion of the kinase reaction, the reaction will be stopped by adding the binding solution containing terbium tracer. This tracer is immobilized on the surface of the IMAP beads, which also contain metal ions on the beads that bind to the phospho-groups of the products. Thus the phosphorylated product of the reaction can enter into close proximity to the tracer, producing resonance energy transfer. Due to the long lifetime of terbium (Tb) fluorescence the detection can be run in time resolved mode, which virtually eliminates fluorescence interference from assay components or compounds. The TR-FRET signal measurement from this assay, given as an IC50 measurement, is a measure of a test compound's ability to interfere with the phosphorylation of the peptide substrate, that is it inhibits the phosphorylation of the substrate peptide by DYRK1B, and is thus a measure of the test compound's ability to inhibit the activity of DYRK1B. IC50 is the amount of test compound that inhibits 50% of the activity of DYRK1B in this assay. In some cases where the IC50 was not determined, then the % inhibition at 10 μM test compound concentration may be reported. Materials and Reagents • 1. Human DYRK1B: from Invitrogen. Part #PR8350B (former PV4649) • 2. Substrate Peptide: in-house synthesized: RRRFRPASPLRGPPK • 3. IMAP TR-FRET IPP Explorer Kit: from Molecular Devices. Part #R8157 • 4. Kinase Assay Buffer (KAB): 10 mM HEPES pH 7.0, 50 mM NaCl, 5 mM MgCl2, 1 mM DTT, 1 mM NaVO4, 200 μg/mL BSA (0.02%) • 5. Assay Plate: Remp polypropylene clear 384-well microplate. Cat#23490-102 • 6. Detection Plate: Costa black 384-well microplate. Cat #3710 Assay Procedure: this Assay was Performed as Follows: • 1. Transfer 1.5 μL of 20× compound solution to each well of an assay plate. • 2. Add to each well 22.5 μL of KAB Buffer. • 3. Add to each well 3 μL of the solution of DYRK1B and ATP. […] Add to each well 3 μL of the substrate peptide. The assay concentration is 1.0 μM • 5. Incubate the assay plates at 37° C. for 60 minutes. • 6. Add 18 μL of Detection Solution (1:800 diluted Progress bead stock, 1:400 diluted Tb stock, 80% Buffer A, and 20% Buffer B) into each well of detection plates. • 7. Transfer 6 μL of assay solution from the assay plate to the detection plate. • 8. Shake detection plates for 30 minutes. • 9. Read plates in Envision with wavelength set at excitation 340 nm for Tb, emission 490 nm, and […] 520 nm. • 10. Calculation: TR-FRET Signal=(Reading at […]/Reading at 490 nM)×2000000

[2] = target: T2, Human DYRK1A (Homo sapiens, UniProt Q13627); experiment: DYRK1A Kinase TR-FRET (IMAP-Tb) Assay; assay type: biochemical; details: TR-FRET (IMAP-Tb); ATP 70 μM; 37° C. for 60 minutes; averages of multiple runs; read-out: Enzyme IC50 (μM) DYRK1A
T2 construct: purchased Invitrogen PV3997
Text: DYRK1A Kinase TR-FRET (IMAP-Tb) Assay
The kinase TR-FRET (IMAP-Tb) assay uses a fluorescence labeled substrate peptide in the kinase reaction. Upon phosphorylation by the kinase, phosphopeptide is produced, which will be detected by the binding solution provided in IMAP TR-FRET binding kit. After the completion of the kinase reaction, the reaction will be stopped by adding the binding solution containing terbium tracer. This tracer is immobilized on the surface of the IMAP beads, which also contain metal ions on the beads that bind to the phospho-groups of the products. Thus the phosphorylated product of the reaction can enter into close proximity to the tracer, producing resonance energy transfer. Due to the long lifetime of terbium (Tb) fluorescence the detection can be run in time resolved mode, which virtually eliminates fluorescence interference from assay components or compounds.
The TR-FRET signal measurement from this assay, given as an IC50 measurement, is a measure of a test compound's ability to interfere with the phosphorylation of the peptide substrate, that is it inhibits the phosphorylation of the substrate peptide by DYRK1A, and is thus a measure of the test compound's ability to inhibit the activity of DYRK1A.
Materials and Reagents • 1. Human DYRK1A: from Invitrogen. Part #PV3997 • 2. Substrate Peptide: […] • 3. IMAP TR-FRET IPP Explorer Kit: from Molecular Devices. Part #R8157 • 4. Kinase Assay Buffer (KAB): 10 mM HEPES pH 7.0, 50 mM NaCl, 5 mM MgCl2, 1 mM DTT, 1 mM NaVO4, 200 ug/mL BSA (0.02%) • 5. Assay Plate: Remp polypropylene clear 384-well microplate. […] Detection Plate: Costa black 384-well microplate.
Assay Procedure: this Assay was Performed as Follows: • 1. Transfer 1.5 μL of 20× compound solution to each well of an assay plate. • 2. Add to each well 22.5 μL of KAB Buffer. • 3. Add to each well 3 μL of the solution of DYRK1A and ATP. […] Add to each well 3 μL of the substrate peptide. The assay concentration is 1.0 μM • 5. Incubate the assay plates at 37° C. for 60 minutes. • 6. Add 18 μL of Detection Solution (1:800 diluted Progress bead stock, 1:400 diluted Tb stock, 80% Buffer A, and 20% Buffer B) into each well of detection plates. • 7. Transfer 6 μL of assay solution from the assay plate to the detection plate. • 8. Shake detection plates for 30 minutes. • 9. Read plates in Envision with wavelength set at excitation 340 nm for Tb, emission 490 nm, and […] 520 nm. • 10.

[3] = system: SW620 human colon cancer cells; experiment: SW620 Cell Viability Assay; assay type: cell-based; details: SW-620, 96 h, CellTiter-Glo Luminescent Cell Viability Assay, 4 days incubation, read-out: Cellular EC50 (μM) SW620
Experimental: SW620 Cell Viability Assay
1. Cell Plate Preparation: SW620 human colon cancer cells (known to express DYRK1B), obtained from ATCC, were seeded into 96-well plates at 3×10^3 cells/well in 50 μL of media. • Harvested the required number of cells (counts & viability determined by Guava Viacount). • Centrifuge cells to pellet and removed supernant. • Resuspended in growth media (50 μL/well) & pipetted thoroughly to break up clumps. • Setup for ˜100 wells/plate, therefore, VT=5 mL/plate @ […].
1A. Some cells (S—) were allowed to attach for 24 hrs, serum starved for 48 hrs, and then followed with test compound treatments.
Test compound solution were prepared in regular corresponding media supplemented with serum.
2. Test compound Preparation: Drugs were solubilized in either DMSO or media and prepared at various stock concentrations. • All compounds were incubated at 37° C. for 30 minutes and vortexed. • (5 mM stocks of test compound were prepared for non-soluble test compounds)
3. Test compound Plate Preparation: • The 10 mM test compound stock was diluted to a concentration of 100× the final Cmax concentration. • Then the test compound stock is diluted 50-fold in media and/or second test compound for a final Cmax concentration in the test compound plate. • The Cmax in the test compound plate (2% DMSO) is 2-fold higher than the final Cmax in the cell plate (60 μl, titrations were 1:3).
4. Viability Assay: This assay was performed as follows: • Transfer 50 μL of test compound solution per well from the test compound plate onto the cell plate prepared in Step #1. • Mix the plate with treated cells by pipetting up and down three times with 200 μL multi-channel pipette. • Incubate the cells in 5% CO2 incubator @ 37° C. for 4 days. • Run the CellTiter-Glo™ Luminescent Cell Viability Assay.
The results of this assay, given as EC50 values, indicate the concentration of test compound that inhibits tumor cell proliferation by 50%.

T1 sequence (Q9Y463 whole entry): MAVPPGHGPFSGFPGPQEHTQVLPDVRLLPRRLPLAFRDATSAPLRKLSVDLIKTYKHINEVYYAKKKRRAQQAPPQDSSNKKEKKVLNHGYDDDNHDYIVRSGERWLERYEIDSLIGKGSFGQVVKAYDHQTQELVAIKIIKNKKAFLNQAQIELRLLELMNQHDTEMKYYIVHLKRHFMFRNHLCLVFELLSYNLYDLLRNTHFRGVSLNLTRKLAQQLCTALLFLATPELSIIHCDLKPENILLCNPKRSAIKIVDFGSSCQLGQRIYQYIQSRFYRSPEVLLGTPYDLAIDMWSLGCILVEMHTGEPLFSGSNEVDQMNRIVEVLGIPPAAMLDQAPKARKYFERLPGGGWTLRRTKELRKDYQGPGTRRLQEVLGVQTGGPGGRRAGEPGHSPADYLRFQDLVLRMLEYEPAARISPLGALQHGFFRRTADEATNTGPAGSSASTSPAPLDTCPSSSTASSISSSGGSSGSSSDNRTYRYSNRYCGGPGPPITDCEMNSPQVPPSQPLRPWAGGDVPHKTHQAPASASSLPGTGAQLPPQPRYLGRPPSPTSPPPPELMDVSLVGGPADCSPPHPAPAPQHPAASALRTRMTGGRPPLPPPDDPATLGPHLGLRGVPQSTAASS

| SMILES | IC50 [1] | IC50 [2] | EC50 [3] |
| --- | --- | --- | --- |
| c1cc(NCc2ccsc2)nc(-c2n[nH]c3nc(NCCN4CCOCC4)ncc23)c1 [Example 60, (2-Morpholin-4-yl-ethyl)-(3-{6-[(thiophen-3-ylmethyl)-amino]-pyridin-2-yl}-1H-pyrazolo[3,4-d]pyrimidin-6-yl)-amine] | 0.234 µM | 0.785 µM | > 10 µM |
| c1ccc(CNc2nccc(-c3n[nH]c4nc(NCCN5CCOCC5)ncc34)n2)cc1 [Example 61, [3-(2-Benzylamino-pyrimidin-4-yl)-1H-pyrazolo[3,4-d]pyrimidin-6-yl]-(2-morpholin-4-yl-ethyl)-amine; hydrochloride] | 0.0958 µM | 0.061 µM | > 10 µM |
| Clc1cccc(CNc2nccc(-c3n[nH]c4nc(NCCN5CCOCC5)ncc34)n2)c1 [Example 62, {3-[2-(3-Chloro-benzylamino)-pyrimidin-4-yl]-1H-pyrazolo[3,4-d]pyrimidin-6-yl}-(2-morpholin-4-yl-ethyl)-amine; hydrochloride] | 0.0586 µM | 0.0384 µM | > 10 µM |
| Clc1ccccc1CNc1nccc(-c2n[nH]c3nc(NCCN4CCOCC4)ncc23)n1 [Example 63, {3-[2-(2-Chloro-benzylamino)-pyrimidin-4-yl]-1H-pyrazolo[3,4-d]pyrimidin-6-yl}-(2-morpholin-4-yl-ethyl)-amine; hydrochloride] | 0.0671 µM | 0.0371 µM | 0.9 µM |
| Clc1ccc(CNc2nccc(-c3n[nH]c4nc(NCCN5CCOCC5)ncc34)n2)cc1 [Example 64, {3-[2-(4-Chloro-benzylamino)-pyrimidin-4-yl]-1H-pyrazolo[3,4-d]pyrimidin-6-yl}-(2-morpholin-4-yl-ethyl)-amine; hydrochloride] | 0.353 µM | 0.242 µM | > 10 µM |
| N[C@H]1CC[C@H](Nc2ncc3c(-c4ccnc(NCc5ccsc5)n4)n[nH]c3n2)CC1 [Example 66, N-(3-{2-[(Thiophen-3-ylmethyl)-amino]-pyrimidin-4-yl}-1H-pyrazolo[3,4-d]pyrimidin-6-yl)-cyclohexane-1,4-diamine; hydrochloride] | 0.0172 µM | 0.0148 µM | 0.04 µM |
| NCCC(Nc1cccc(-c2n[nH]c3nc(N[C@H]4CC[C@H](N)CC4)ncc23)n1)c1ccccc1 (stereo partly drawn) [Example 69, N-{3-[6-(3-Amino-1-phenyl-propylamino)-pyridin-2-yl]-1H-pyrazolo[3,4-d]pyrimidin-6-yl}-cyclohexane-1,4-diamine; hydrochloride] | 0.197 µM | 0.231 µM | 0.001 µM |
| N[C@H]1CC[C@H](Nc2ncc3c(-c4ccnc(NCc5ccccc5)n4)n[nH]c3n2)CC1 [Example 70, N-[3-(2-Benzylamino-pyrimidin-4-yl)-1H-pyrazolo[3,4-d]pyrimidin-6-yl]-cyclohexane-1,4-diamine; hydrochloride] | 0.0125 µM | 0.0062 µM | > 10 µM |
| N[C@H]1CC[C@H](Nc2ncc3c(-c4ccnc(NCc5cccc(Cl)c5)n4)n[nH]c3n2)CC1 [Example 71, N-{3-[2-(3-Chloro-benzylamino)-pyrimidin-4-yl]-1H-pyrazolo[3,4-d]pyrimidin-6-yl}-cyclohexane-1,4-diamine; hydrochloride] | 0.006 µM | 0.0046 µM | 0.027 µM |
| N[C@H]1CC[C@H](Nc2ncc3c(-c4ccnc(NCc5ccc(Cl)cc5)n4)n[nH]c3n2)CC1 [Example 72, N-{3-[2-(4-Chloro-benzylamino)-pyrimidin-4-yl]-1H-pyrazolo[3,4-d]pyrimidin-6-yl}-cyclohexane-1,4-diamine; hydrochloride] | 0.009 µM | 0.013 µM | 0.056 µM |
| NCC(Nc1cccc(-c2n[nH]c3nc(N[C@H]4CC[C@H](N)CC4)ncc23)n1)c1ccccc1 (stereo partly drawn) [Example 74, N-{3-[6-(2-Amino-1-phenyl-ethylamino)-pyridin-2-yl]-1H-pyrazolo[3,4-d]pyrimidin-6-yl}-cyclohexane-1,4-diamine; hydrochloride] | < 0.0046 µM | 0.0046 µM | > 10 µM |
| NCC(Nc1nccc(-c2n[nH]c3nc(NCCN4CCOCC4)ncc23)n1)c1cccc(Cl)c1 (stereo not drawn) [Example 76, 1-(3-Chloro-phenyl)-N1-{4-[6-(2-morpholin-4-yl-ethylamino)-1H-pyrazolo[3,4-d]pyrimidin-3-yl]-pyrimidin-2-yl}-ethane-1,2-diamine; hydrochloride] | 0.0121 µM | 0.0076 µM | 0.14 µM |
